Experimental data: patent US8030354B2, “Substituted biphenyl GPR40 modulators” (Amgen Inc., priority 2007, dated 2011)

What was measured:
GPR40 [1] = target: T1, GPR40 (Homo sapiens, UniProt O14842); experiment: Inositol phosphate accumulation assay (A9_GPR40 cells); format: cell-based; parameters: expressed in transfected cells; host or cells: CHO cells stably transfected with GPR40 and aequorin; settings: inositol phosphate assay, A9_GPR40 cells, 1 hour; read-out: IP3 EC50
Description: Briefly, the Aequorin assays were performed on doubly stable CHO cells expressing GPR40 and Aequorin DNA. […] The luminescence was recorded over a period of 20 seconds with a Microlumat luminometer (Berthold). […] The inositol phosphate assay was performed on an A9 cell line stably transfected with GPR40 (A9_GPR40). The cells were incubated with different concentrations of compounds and [^3H] inositol accumulation was measured after 1 hour.
An A9 cell line stably transfected with GPR40 (A9_GPR40) was used in IP accumulation assays. A9_GPR40 cells were plated in 96-well plates containing 20,000 cells/well in DMEM containing 10% FBS. After the cells attached to the well surface, the media was replaced with inositol free DMEM containing 10% dialyzed FBS and 1 μCi, mL ^3H-inositol and incubated for 16 hours. Compounds were diluted in HBSS/10 mM LiCl containing a desired amount of HSA and added directly to cells. Following 1 hour incubation at 37° C., the media was replaced with 100 μL of 20 mM formic acid to quench the reaction. 50 μL of the extract was then added to 100 μL of SPA beads, incubated overnight, and measured on a TopCount the following day.

GPR40 [2] = target: T1, GPR40; experiment: Cell-based aequorin assay (CHO cells stably expressing GPR40 and aequorin); parameters: expressed in transfected cells; host or cells: CHO cells stably transfected with GPR40 and aequorin; settings: activation of human GPR40, CHO cells, 0.01% HSA
In short: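 CHO cells stably co-expressing GPR40 and aequorin, loaded with coelenterazine (1 ug/mL, 2 h, room temperature) in H/HBSS with 20 mM Hepes and 0.01% fatty acid-free HSA. Serially diluted compounds added; luminescence recorded over 20 s. EC50 from dose-response of maximum relative light units.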

T1 sequence (O14842 whole entry): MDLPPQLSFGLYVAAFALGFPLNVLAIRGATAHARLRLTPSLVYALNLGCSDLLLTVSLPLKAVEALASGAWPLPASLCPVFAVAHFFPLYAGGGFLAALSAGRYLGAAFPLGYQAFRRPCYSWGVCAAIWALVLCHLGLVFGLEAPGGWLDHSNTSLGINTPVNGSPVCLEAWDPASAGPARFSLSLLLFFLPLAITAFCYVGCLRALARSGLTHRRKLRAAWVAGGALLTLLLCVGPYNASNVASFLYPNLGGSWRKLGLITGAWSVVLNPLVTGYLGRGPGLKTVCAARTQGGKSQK

Structure (SMILES)	EC50 (GPR40 [1]) [nM]	EC50 (GPR40 [2]) [nM]
CC[C@H](CC(=O)O)c1cccc(SCc2ccc(-c3cc(OC)ccc3F)c([C@H]3CCCC3(C)C)c2)c1 (single isomer, unassigned) [Example 82]	1000 to 10000	100 to 1000
COc1ccc(F)c(-c2ccc(COc3cccc(C(CC(=O)O)C4CCC4)c3)cc2C2=CCCC2(C)C)c1 (single isomer, unassigned) [Example 70.2, (3S)-3-Cyclobutyl-3-(3-(((2-(5,5-dimethyl-1-cyclopenten-1-yl)-2′-fluoro-5′-(methyloxy)-1,1′-biphenyl-4-yl)methyl)oxy)phenyl)propanoic acid or (3R)-3-cyclobutyl-3-(3-(((2-(5,5-dimethyl-1-cyclopenten-1-yl)-2′-fluoro-5′-(methyloxy)-1,1′-biphenyl-4-yl)methyl)oxy)phenyl)propanoic acid]	10 to 100	100 to 1000
CCC(CC(=O)O)c1cc(F)cc(OCc2ccc(-c3cc(OC)ccc3F)c(C3CCCC3(C)C)c2)c1F (single isomer, unassigned) [Example 90.2]	< 10	100 to 1000
COc1ccc(F)c(-c2ccc(COc3cccc(C4(CC(=O)O)CCCCC4)c3)cc2C2CCCC2(C)C)c1 (single isomer, unassigned) [Example 105.1, (1-{3-[2-((S)-2,2-Dimethyl-cyclopentyl)-2′-fluoro-5′-methoxy-biphenyl-4-ylmethoxy]-phenyl}-cyclohexyl)-acetic acid or (1-{3-[2-((R)-2,2-dimethyl-cyclopentyl)-2′-fluoro-5′-methoxy-biphenyl-4-ylmethoxy]-phenyl}-cyclohexyl)-acetic acid]	10 to 100	100 to 1000
COc1ccc(F)c(-c2ccc(COc3cccc(C(CC(=O)O)CC4CC4)c3F)cc2C2=CCCC2(C)C)c1 (single isomer, unassigned) [Example 84.5, (3R)-4-Cyclopropyl-3-(3-(((2-(5,5-dimethyl-1-cyclopenten-1-yl)-2′-fluoro-5′-(methyloxy)-1,1′-biphenyl-4-yl)methyl)oxy)-2-fluorophenyl)butanoic acid or (3S)-4-cyclopropyl-3-(3-(((2-(5,5-dimethyl-1-cyclopenten-1-yl)-2′-fluoro-5′-(methyloxy)-1,1′-biphenyl-4-yl)methyl)oxy)-2-fluorophenyl)butanoic acid]	10 to 100	100 to 1000
COc1ccc(F)c(-c2ccc(COc3cccc(C(C)CC(=O)O)c3)cc2C2CCCCCC2)c1 (single isomer, unassigned) [Example 64.17, (3R)-3-(3-(((2-Cycloheptyl-2′-fluoro-5′-(methyloxy)-1,1′-biphenyl-4-yl)methyl)oxy)phenyl)butanoic acid or (3S)-3-(3-(((2-cycloheptyl-2′-fluoro-5′-(methyloxy)-1,1′-biphenyl-4-yl)methyl)oxy)phenyl)butanoic acid]	10 to 100	100 to 1000
COc1ccc(F)c(-c2ccc(COc3cccc(C(CC(=O)O)C4CC4)c3F)cc2CN2CCCCCC2)c1 (single isomer, unassigned) [Example 83.29, (3S)-3-(3-(((2-(1-Azepanylmethyl)-2′-fluoro-5′-(methyloxy)-1,1′-biphenyl-4-yl)methyl)oxy)-2-fluorophenyl)-3-cyclopropylpropanoic acid or (3R)-3-(3-(((2-(1-Azepanylmethyl)-2′-fluoro-5′-(methyloxy)-1,1′-biphenyl-4-yl)methyl)oxy)-2-fluorophenyl)-3-cyclopropylpropanoic acid]	100 to 1000	1000 to 10000
CC[C@H](CC(=O)O)c1cccc(OCc2ccc(-c3cc(C(F)F)ccc3F)c(C3=CCCC3(C)C)c2)c1F (single isomer, unassigned) [Example 77.7, (3R)-3-(3-(((5′-(Difluoromethyl)-2-(5,5-dimethyl-1-cyclopenten-1-yl)-2′-fluoro-1,1′-biphenyl-4-yl)methyl)oxy)-2-fluorophenyl)pentanoic acid or (3S)-3-(3-(((5′-(difluoromethyl)-2-(5,5-dimethyl-1-cyclopenten-1-yl)-2′-fluoro-1,1′-biphenyl-4-yl)methyl)oxy)-2-fluorophenyl)pentanoic acid]	100 to 1000	1000 to 10000
COc1ccc(F)c(-c2ccc(COc3cccc(C(C)CC(=O)O)c3)cc2C2CCCC2(C)C)c1 (single isomer, unassigned) [Example 64.22, (3R)-3-(3-(((2-(2,2-Dimethylcyclopentyl)-2′-fluoro-5′-(methyloxy)-1,1′-biphenyl-4-yl)methyl)oxy)phenyl)butanoic acid or (3S)-3-(3-(((2-(2,2-dimethylcyclopentyl)-2′-fluoro-5′-(methyloxy)-1,1′-biphenyl-4-yl)methyl)oxy)phenyl)butanoic acid]	10 to 100	100 to 1000
CCCCOc1cc(COc2cccc([C@H](CCC)CC(=O)O)c2)ccc1-c1cc(OC)ccc1F (single isomer, unassigned) [Example 60, (3R)-3-(3-(((2-(Butyloxy)-2′-fluoro-5′-(methyloxy)-1,1′-biphenyl-4-yl)methyl)oxy)phenyl)hexanoic acid or (3S)-3-(3-(((2-(butyloxy)-2′-fluoro-5′-(methyloxy)-1,1′-biphenyl-4-yl)methyl)oxy)phenyl)hexanoic acid]	100 to 1000	100 to 1000
COc1ccc(F)c(-c2ccc(COc3cccc(C(CC(=O)O)C4CCC4)c3)cc2C(C)(C)C)c1 (single isomer, unassigned) [Example 70.3, (3S)-3-Cyclobutyl-3-(3-(((2-(1,1-dimethylethyl)-2′-fluoro-5′-(methyloxy)-1,1′-biphenyl-4-yl)methyl)oxy)phenyl)propanoic acid or (3R)-3-cyclobutyl-3-(3-(((2-(1,1-dimethylethyl)-2′-fluoro-5′-(methyloxy)-1,1′-biphenyl-4-yl)methyl)oxy)phenyl)propanoic acid]	10 to 100	100 to 1000
COc1ccc(F)c(-c2ccc(COc3cccc([C@@H](CC(=O)O)C4CC4)c3)cc2COC(C)(C)C)c1 (single isomer, unassigned) [Example 66.63, (3S)-3-Cyclopropyl-3-(3-(((2-(((1,1-dimethylethyl)oxy)methyl)-2′-fluoro-5′-(methyloxy)-1,1′-biphenyl-4-yl)methyl)oxy)phenyl)propanoic acid or (3R)-3-cyclopropyl-3-(3-(((2-(((1,1-dimethylethyl)oxy)methyl)-2′-fluoro-5′-(methyloxy)-1,1′-biphenyl-4-yl)methyl)oxy)phenyl)propanoic acid]	1000 to 10000	1000 to 10000
COCCO[C@H](c1cc(COc2cccc([C@@H](CC(=O)O)CC3CC3)c2)ccc1-c1cc(OC)ccc1F)C(C)(C)C (single isomer, unassigned) [Example 69.23]	< 10	10 to 100
COc1ccc(F)c(-c2ccc(COc3cccc([C@@H](CC(=O)O)CC4CC4)c3)cc2C2=CC(C)(C)CC(C)(C)C2)c1 (single isomer, unassigned) [Example 69.31, (3R)-4-Cyclopropyl-3-(3-(((2′-fluoro-5′-(methyloxy)-2-(3,3,5,5-tetramethyl-1-cyclohexen-1-yl)-1,1′-biphenyl-4-yl)methyl)oxy)phenyl)butanoic acid or (3S)-4-cyclopropyl-3-(3-(((2′-fluoro-5′-(methyloxy)-2-(3,3,5,5-tetramethyl-1-cyclohexen-1-yl)-1,1′-biphenyl-4-yl)methyl)oxy)phenyl)butanoic acid]	10 to 100	100 to 1000
COc1ccc(F)c(-c2ccc(COc3cccc([C@@H](CC(=O)O)CC4CC4)c3)cc2C2CCCC2C)c1 (single isomer, unassigned) [Example 69.33, (3R)-4-Cyclopropyl-3-(3-(((2′-fluoro-2-(2-methylcyclopentyl)-5′-(methyloxy)-1,1′-biphenyl-4-yl)methyl)oxy)phenyl)butanoic acid or (3S)-4-cyclopropyl-3-(3-(((2′-fluoro-2-(2-methylcyclopentyl)-5′-(methyloxy)-1,1′-biphenyl-4-yl)methyl)oxy)phenyl)butanoic acid]	10 to 100	100 to 1000
CCC(CC(=O)O)c1cccc(OCc2ccc(-c3cc(OC)ccc3F)c(C3=CCCC3(C)C)c2)c1F (single isomer, unassigned) [Example 77.1, (3R)-3-(3-(((2-(5,5-Dimethyl-1-cyclopenten-1-yl)-2′-fluoro-5′-(methyloxy)-1,1′-biphenyl-4-yl)methyl)oxy)-2-fluorophenyl)pentanoic acid or (3S)-3-(3-(((2-(5,5-dimethyl-1-cyclopenten-1-yl)-2′-fluoro-5′-(methyloxy)-1,1′-biphenyl-4-yl)methyl)oxy)-2-fluorophenyl)pentanoic acid]	10 to 100	100 to 1000
COc1ccc(F)c(-c2ccc(COc3cccc([C@@H](CC(=O)O)C4CC4)c3)cc2[C@H](OC)C(C)(C)C)c1 (single isomer, unassigned) [Example 66.24]	100 to 1000	1000 to 10000
